Assay: Reduction of total cholesterol (TC) in treated animals, additional experiments (1 μg net peptide, five injections)
Assay type: in vivo, mice
Conditions: 5 animals per group, 5 x 1 μg net peptide
Experimental: All plasma samples were collected two weeks after the final immunization and equality treated. Total cholesterol (TC) measurements were performed simultaneously for all samples and side by side compared to their related controls (originals sequence and negative control). The simultaneous quantitative measurement of the plasma TC levels in mg/dL was measured by LabAssay™ Cholesterol Kit (Wako). In details, upon incubation with the chromogen reagent containing cholesterol esterase, the cholesterol esters in the samples were decomposed into free cholesterol and fatty acids. Subsequently the free cholesterol was oxidized by the cholesterol oxidase, leading to the simultaneously release of hydrogen peroxide. The produced hydrogen peroxide let DAOS and 4-Aminoantipyrin oxidize and condensate quantitatively by peroxidase (HRP), which produced blue pigment. Optical density was measured at 600 nm and quantification of the TC was calculated according to a standard curve.
In order to evaluate the ability of selected VARIOTOPE® vaccine candidates to reduce TC and to compare the magnitude of TC reduction in VARIOTOPE® treated animals with the TC reduction in animals treated with a vaccine containing the original sequence, 5 to 10 mice per group were injected five times in 2 week intervals with vaccines containing 1 μg of net peptide. […]

PEEDGTRFHRQASL [SEQ ID NO: 24]
TC values in comparison to the control group (FIG. 4) (control group set as 100%, result in words): possesses the ability to reduce TC levels compared to the negative control | TC levels compared to the original peptide containing vaccine (FIG. 5) (original sequence group set to 0%, positive = higher TC): +9%

Source: patent publication US10004791B2, “Peptide vaccines against PCSK9” (AFFIRIS AG, priority 2014, dated 2018)
